Experiments:
[1] = system: HepG2; test: Cytotoxicity against Homo sapiens (human) HepG2 cells at 25 uM relative to control; assay type: functional
[2] = system: HepG2; test: Potentiation of gamma-irradiation-induced cytotoxicity against Homo sapiens (human) HepG2 cells at 5 uM relative to control; assay type: functional
[3] = system: HepG2; test: Potentiation of gamma-irradiation-induced cytotoxicity against Homo sapiens (human) HepG2 cells at 40 uM relative to control; assay type: functional
[4] = system: HepG2; test: Anticancer activity against Homo sapiens (human) HepG2 cells after 48 hr by SRB assay; assay type: functional, cell-based; conditions: HepG2, 48 h
[5] = system: MCF7; test: Anticancer activity against Homo sapiens (human) MCF7 cells after 48 hr by SRB assay; assay type: functional, cell-based; conditions: MCF7, 48 h
[6] = system: HepG2; test: Cytotoxicity against Homo sapiens (human) HepG2 cells at 12.5 uM relative to control; assay type: functional
[7] = system: HepG2; test: Cytotoxicity against Homo sapiens (human) HepG2 cells at 5 uM relative to control; assay type: functional
[8] = system: HepG2; test: Cytotoxicity against Homo sapiens (human) HepG2 cells at 40 uM relative to control; assay type: functional
[9] = system: HepG2; test: Potentiation of gamma-irradiation-induced cytotoxicity against Homo sapiens (human) HepG2 cells at 12.5 uM relative to control; assay type: functional
[10] = system: HepG2; test: Potentiation of gamma-irradiation-induced cytotoxicity against Homo sapiens (human) HepG2 cells at 25 uM relative to control; assay type: functional

SMILES | IC50 [4] [µM] | IC50 [5] [µM] | Activity [1] [%] | Activity [2] [%] | Activity [3] [%] | Activity [6] [%] | Activity [7] [%] | Activity [8] [%] | Activity [9] [%] | Activity [10] [%]
Cc1cc(C)nc(NS(=O)(=O)c2ccc(N/C=C3/C(=N)N(c4ccccc4)N=C3N)cc2)n1 | 3.76 | 6.98 | 74.3 | 75.69 | 88.4 | 64.14 | 47.94 | 80.7 | 86 | 92.9
Cc1cc(C)nc(NS(=O)(=O)c2ccc(-n3cc(C#N)c(=O)n(-c4ccccc4)c3=S)cc2)n1 | 3.49 | 5.63 | 62.2 | 47.2 | 87.3 | 49.12 | 19.98 | 79.6 | 70.8 | 77.5

Continued by falling IC50 [4], values first:

IC50 [4] [µM] | IC50 [5] [µM] | SMILES | Activity [1] [%] | Activity [2] [%] | Activity [3] [%] | Activity [6] [%] | Activity [7] [%] | Activity [8] [%] | Activity [9] [%] | Activity [10] [%]
3.49 | 5.1 | NC1=NN(c2ccccc2)C(=O)/C1=C/Nc1ccc(S(=O)(=O)Nc2ccccn2)cc1 | 66.9 | 62.1 | 91.8 | 57.82 | 39.49 | 80.2 | 80.8 | 76.7
3.22 | 7.78 | N=C1NN=C(N)/C1=C\Nc1ccc(S(=O)(=O)Nc2cnc3ccccc3n2)cc1 | 73.2 | 53.6 | 88.2 | 55.27 | 18.15 | 85.8 | 67 | 80.6
3.21 | 6.71 | NC1=NN(c2ccccc2)C(=O)/C1=C/Nc1ccc(S(=O)(=O)Nc2cnc3ccccc3n2)cc1 | 76.15 | 57.1 | 88.5 | 65.3 | 40.36 | 79.39 | 77.8 | 93.5

From ChEMBL document CHEMBL3046345, “Synthesis of novel pyrazole and pyrimidine derivatives bearing sulfonamide moiety as antitumor and radiosensitizing agents” (Med Chem Res, 2012)
